Source: patent US20240341301A1 (The Regents of the University of Michigan, priority 2023, published 2024)

Columns and labels:
murine donor hearts [1] = assay: Murine ex-vivo heart perfusion after cold preservation; design: species or system mouse
Method: (§1) Male and female WT or Irg1^−/− mice (Jackson laboratories, Bar Harbor, ME) were anesthetized intraperitoneally with 80 mg/kg ketamine and 5 mg/kg xylazine, anticoagulated with heparin (2,000 U/kg iv), and the heart was rapidly exposed through a sternal incision. The aorta was cannulated and retrograde perfused in-situ with HTK solution±HDAC inhibitors. After cannulation, the heart dissected free, the left atrium was opened. For 4-OI (Cayman Chemical, 25374) experiments, donor mice were treated 4-OI (dissolved in 40% β-Cyclodextrin, 50 mg/kg intraperitoneally) or vehicle control (40% β-Cyclodextrin intraperitoneally) 2 hours prior to donor heart procurement. After dissection, the heart was stored at 4° C. with HTK or HTK with VPA for a pre-designated duration. The hearts were then mounted on a Radnoti mouse Langendorff apparatus (ADInstruments inc., Colorado Springs, CO) in constant-pressure mode (˜70 mmHg) with a modified Krebs-Henseleit buffer (KHB; in mM: 118 NaCl, 4.7 KCl, 1.25 CaCl2), 1.66 MgSO4, 24.88 NaHCO3, 1.18 KH2PO4, 5.55 glucose, and 2.0 Na-pyruvate). A balloon was placed in the LV through the left atrium and left ventricular diastolic pressure was set to ˜8 mmHg at initiation. The heart was perfused with modified Krebs-Henseleit buffer for 30 min to stabilize and then hemodynamics measurements were recorded. Myocardial temperature was maintained at 37° C. LabChart software (ADInstruments inc., Colorado Springs, CO) was used to record ventricular function, perfusion pressures, cardiac chamber temperature and myocardial temperature. After perfusing the heart for 60 minutes, the heart was removed from the ex-vivo perfusion apparatus for specimen collection. Tissue was immediately placed in liquid N2 or treated with 4% formalin.

IRG1 = IRG1 enhancer ChIP-qPCR and mRNA expression in human donor heart tissue
Method: (§2) Pig hearts underwent ex-vivo perfusion after preservation for 4 or 10 hours. Approval for human heart procurement was obtained from the University of Michigan Institutional Review Board (HUM00131275). Human donor hearts from deceased brain death donors were procured as per standard clinical protocols from the Gift of Life Michigan (GOLM) organ procurement facility. Myocardial biopsies (˜5 mm^3) of LV were biopsied immediately after cardioplegic arrest (0 h) and after 8 hours (8 h) of cold storage in a cooler containing ice. […] Causes of death were stroke (n=4), trauma (n=2), drug overdose (n=1), and cardiac arrest (n=1). Heart tissue were either fixed in formalin or snap frozen in liquid N2 for later analysis.

[2] = cited from earlier work
[3] = system: H3K9 and H3K27 histone acetylation; assay: Histone acetylation Western blot in cold-preserved human donor hearts; conditions: HTK containing VPA, cold (4° C.) static preservation 8 h
Method: Heart procurement for both human and pigs were performed as follows. A sternotomy is performed under general anesthesia. The pericardium is then opened to create a pericardial cradle for the heart. Heparin (300U/kg) administered through the right atrium or in a peripheral vein. After waiting 3 minute for adequate anticoagulation from heparin, a 9 Fr antegrade plegia infusion catheter is placed in the ascending aorta. Approximately 1 liter of autologous donor arterial blood is then collected into a collection bottle containing heparin. […] Subsequently, the ascending aorta is cross-clamped distal to the cardioplegia catheter and 1 liter of cold (4° C.) HTK solution is infused into the coronaries at a perfusion pressure of ˜80 mmHg to induce mechanical arrest. After excising the heart completely, it is transported to the back-table for infusion of 2 liters of HTK±VPA solution. After completion, the heart is stored in a solution identical to the perfusate at 4° C. on ice.
Pig hearts underwent ex-vivo perfusion after preservation for 4 or 10 hours. Approval for human heart procurement was obtained from the University of Michigan Institutional Review Board (HUM00131275). Human donor hearts from deceased brain death donors were procured as per standard clinical protocols from the Gift of Life Michigan (GOLM) organ procurement facility. […]

murine donor hearts [4] = assay: Murine donor heart tissue staining and Western blot (oxidative stress, antioxidant proteins, cell death); design: species or system mouse
Method: as §1

[5] = system: transplanted murine donor hearts; assay: Murine heterotopic syngeneic heart transplantation; format: in vivo, mouse
Method: Cardiac grafts procured from WT C57Bl/6J mice following arrest with cold (4° C.) HTK±VPA were transplanted into the right neck of sex-matched syngeneic C57BL/6J recipient mice following 16 hours of cold (4° C.) preservation in corresponding HTK±VPA solution as previously described (59). A cuff technique was used to connect the recipient right common carotid artery and right external jugular vein to the donor ascending aorta and pulmonary artery, respectively. Following reperfusion in the recipient, successful grafts were expected to resume a regular heartbeat. At 24 hours after reperfusion, the surgical incision was reopened and a small conductance catheter was introduced into the LV to measure contractility and relaxation.
Blood from recipient mice was centrifuged at 3000 g in 4° C. for 10 minutes. Serum was aliquoted and snap-frozen. Serum cTnT, cTnI, TNFα, IL-6, IP10 and MIG concentrations were measured using Sigma-Aldrich MILLIPLEX kits (Cat. No.: MCYTMAG, MCVD2MAG). Pig arterial perfusate was centrifuged at 3000 g in 4° C. for 10 minutes. The abundance of cTnI, IL-1β, IL-6 and TNF-α was detected using Sigma MILLIPLEX kit (Cat. No.: MCVD2MAG, PCYTMAG).

human donor hearts = assay: Mass spectrometry metabolomics of cold-preserved human donor hearts
Method: as §2
Metabolomics measurements were performed by the Michigan Regional Comprehensive Metabolomics Resource Core (Ann Arbor, MI, USA).

[6] = 16 hours preservation, ex-vivo perfusion
[7] = ex vivo perfused WT murine hearts
[8] = 16 h cold preservation, 24 h reperfusion in recipient
[9] = recipient serum after transplantation
[10] = human hearts during cardiac preservation

## CCCC(CCC)C(=O)O [VPA, 2-Propyl-pentanoic acid]
Murine donor hearts [1]; HTK±VPA, cold preservation up to 16 hours
  ex vivo contractility: improve
Murine donor hearts [1]; Irg1−/− hearts, ex vivo perfusion and syngeneic transplant models
  cardioprotective effects of VPA with deficiency in Irg1: reduced
Murine donor hearts [1]; LysM-Cre hearts, ex vivo perfusion model
  effect of conditional Irg1 deficiency in myeloid cells on VPA's cardioprotective effects on contractility or relaxation: did not impact
Murine donor hearts [1]; titration 5, 10 and 20 mM in HTK, 16 hours preservation
  VPA concentration with peak cardioprotective effect: 10 mM
IRG1; 8-hours of preservation compared to HTK alone
  IRG1 enhancer activity (H3K27ac ChIP-qPCR): increased
IRG1; human hearts after preservation
  IRG1 mRNA transcript expression: increased
[2]
  water solubility: water soluble
[3]
  histone acetylation (H3K9, H3K27) after prolonged cardiac preservation: maintained
Murine donor hearts [4]; [6]
  overall oxidative stress (DHE staining): decreased
  oxidative DNA damage (8OHdG staining): decreased
Murine donor hearts [4]; Irg1−/− hearts
  NRF2 nuclear translation effect: greatly reduced
  benefit on TUNEL staining in α-actinin+ cardiomyocytes: lost
Murine donor hearts [4]; Irg1−/− murine hearts
  antioxidant protein expression: no increase
Murine donor hearts [4]; WT hearts
  NRF2 nuclear translation from the cytoplasm: induced
Murine donor hearts [4]; [7]
  protein abundance of HO1: upregulated
  protein abundance of SOD1: upregulated
  protein abundance of SOD2: not
  protein abundance of total NRF2: upregulated
Murine donor hearts [4]; preserved and transplanted murine hearts
  ratio of reduced (GSH) versus oxidized glutathione (GSSG): increased
Murine donor hearts [4]; wild type hearts
  TUNEL staining in α-actinin+ cardiomyocytes: reduced
[5]; [8]
  improvement of in vivo donor heart contractility (max dP/dt) compared to standard HTK solution alone: 265%
  improvement of in vivo donor heart relaxation (min dP/dt) compared to standard HTK solution alone: 250%
[5]; TUNEL
  cell death in transplanted heart tissue: reduced
[5]; [9]
  serum concentration of IL-6: reduced
  serum concentration of IP-10: reduced
  serum concentration of MIG: reduced
  serum concentration of TNFα: reduced
  serum troponin I: reduced
  serum troponin T: reduced
[5]; transplanted heart tissue
  leukocyte infiltration: reduced
Human donor hearts; cold preservation, HTK±VPA
  decrease in itaconate during cold storage: limited
  succinate production: reduced
Human donor hearts; [10]
  fumarate concentration in VPA-treated group: 43.5±6.6 pmol/mg tissue
  itaconate concentration in VPA-treated group: 8.0±1.0 pmol/mg tissue
